Measurements: patent publication US5565483A, “3-substituted oxindole derivatives as potassium channel modulators” (Bristol-Myers Squibb Company, priority 1995, dated 1996)

test system: cloned mammalian (mSIo or hSIo) BK channels; assay: Increase of cloned BK-mediated outward current in Xenopus oocytes, two-electrode voltage clamp; format: cell-based; conditions: at 20 μM; at least 5 oocytes; mSIo or hSIo expressed in Xenopus oocytes
Experimental: The ability of compounds described in the present invention to open BK channels and increase whole-cell outward (K^+) BK-mediated currents was assessed under voltage-clamp conditions by determining their ability to increase cloned mammalian (mSIo or hSIo) BK--mediated outward current heterologously expressed in Xenopus oocytes [Butler, A., et al., Science, 261:221-224 (1993); and Dworetzky, S. I., etal., Mol. Brain Res., 27: 189-193 (1994)]. The two BK constructs employed represent nearly structurally identical homologous proteins, and have proven to be pharmacologically identical in our tests. To isolate BK current from native (background, non-BK) current, the specific and potent BK channel-blocking toxin iberiotoxin (IBTX) [Galvez, A., et al., J. Biol. Chem. 265:11083-11090 (1990)] was employed at a supramaximal concentration (50 nM). The relative contribution of BK channels current to total outward current was determined by subtraction of the current remaining in the presence of IBTX (non-BK current) from the current profiles obtained in all other experimental conditions (control, drug, and wash). […] All compounds were tested in at least 5 oocytes and are reported at the single concentration of 20 uM; the effect of the selected compounds of Formula I on BK current was expressed as the percent of control IBTX-sensitive current and is listed in Table I. Recordings were accomplished using standard two-electrode voltage clamp techniques [Stuhmer, W., et al., Methods in Enzymology, Vol. 207:319-339 (1992)]; voltage-clamp protocols consisted of 500-750 ms duration step depolarizations from a holding potential of -60 mV to +140 mV in 20 mV steps. The experimental media (modified Barth's solution) consisted of (in mM): NaCl (88), NaHCO3 (2.4), KCl (1.0), HEPES (10), MgSO4 (0.82), Ca(NO3)2 (0.33), CaCl2 (0.41); pH 7.5.

SMILES | BK Current, percent of control IBTX-sensitive current
O=C1Nc2cc(C(F)(F)F)ccc2C1(O)c1cc(Cl)ccc1O (single isomer, unassigned; (-)) [Example 13, (-)-3-(5-Chloro-2-hydroxyphenyl)-1,3-dihydro-3-hydroxy-6-(trifluoromethyl)-2H-indol-2-one] | ++ (++ = 125-150%)
O=C1Nc2cc(-c3ccccc3)ccc2C1c1cc(Cl)ccc1O (racemic) [Example 16, (±)-3-(5-Chloro-2-hydroxyphenyl)-1,3-dihydro-6-phenyl-2H-indol-2-one] | +++ (+++ = >150%)
O=C1Nc2cc(Cl)cc(Cl)c2C1(O)c1cc(Cl)ccc1O (racemic) [Example 6, (±)-3-(5-Chloro-2-dhydroxyphenyl)-4,6-dichloro-1,3-dihydro-3-hydroxy-2-H-indol-2-one] | + (+ = 100-125%)
COc1ccc(Cl)cc1C1(F)C(=O)Nc2cc(C(F)(F)F)ccc21 (racemic) [Example 14, (±)-3-(5-Chloro-2-methoxyphenyl)-1,3-dihydro-3-fluoro-6-(trifluoromethyl)-2H-indol-2-one] | ++ (++ = 125-150%)
O=C1Nc2cc(C(F)(F)F)ccc2C1(O)c1cc(Cl)ccc1O (racemic) [Example 3, (±)-3-(5-Chloro-2-hydroxyphenyl)-1,3-dihydro-3-hydroxy-6-(trifluoromethyl)-2H-indol-2-one] | ++ (++ = 125-150%)
O=C1Nc2cc(I)ccc2C1c1cc(Cl)ccc1O (racemic) [Example 33, (±)-3-(5-Chloro-2-hydroxyphenyl)-1,3-dihydro-6-iodo-2H-indol-2-one] | +++ (+++ = >150%)
O=C1Nc2ccc3ccccc3c2C1c1cc(Cl)ccc1O (racemic) [Example 22, (±)-3-(5--Chloro-2-hydroxyphenyl)-1,3-dihydro-2H-benz[e]indol-2-one] | +++ (+++ = >150%)
O=C1Nc2c(C(F)(F)F)cccc2C1(O)c1cc(Cl)ccc1O (racemic) [Example 7, (±)-3-(5-Chloro-2-hydroxyphenyl)-1,3-dihydro-3-hydroxy-7-(trifluoromethyl)-2H-indol-2-one] | + (+ = 100-125%)
O=C1Nc2cc(Cl)cc(Cl)c2C1c1cc(Cl)ccc1O (racemic) [Example 31, (±)-3-(5-Chloro-2-hydroxyphenyl)-4,6-dichloro-1,3-dihydro-2H-indol-2-one] | + (+ = 100-125%)
COc1ccc(Cl)cc1C1(F)C(=O)Nc2ccc(F)cc21 (racemic) [Example 25, (±)-3-(5-Chloro-2-methoxyphenyl)-1,3-dihydro-3,5-difluoro-2H-indol-2-one] | + (+ = 100-125%)
O=C1Nc2cc(C(F)(F)F)ccc2C1c1cc(Cl)ccc1O (racemic) [Example 4, (±)-3-(5-Chloro-2-hydroxyphenyl)-1,3-dihydro-6-(trifluoromethyl)-2H-indol-2-one] | +++ (+++ = >150%)
O=C1Nc2c(ccc3ccccc23)C1(O)c1cc(Cl)ccc1O (racemic) [Example 15, (±)-3-(5-Chloro-2-hydroxyphenyl)-1,3-dihydro-3-hydroxy-2H-benz[g]indol-2-one] | +++ (+++ = >150%)
O=C1Nc2cc(C(F)(F)F)ccc2C1(O)c1cc(C(F)(F)F)ccc1O (racemic) [Example 9, (±)-1,3-Dihydro-3-hydroxy-3-[2-hydroxy-5-(trifluoromethyl)phenyl]-6-(trifluoromethyl)-2H-indol-2-one] | ++ (++ = 125-150%)
COc1ccc(Cl)cc1C1(O)C(=O)Nc2cc(C(F)(F)F)ccc21 (racemic) [Example 1, (±)-3-(5-Chloro-2-methoxyphenyl)-1,3-dihydro-3-hydroxy-6-(trifluoromethyl)-2H-indol-2-one] | + (+ = 100-125%)

test system: cortical infarct volume after MCAO; assay: Permanent middle cerebral artery occlusion (MCAO) focal stroke model; format: in vivo, spontaneously hypertensive rat; conditions: intraparitoneally 10 mg/kg, single bolus 2 hours after MCAO; infarct measured 24 hours after MCAO; vs vehicle-treated control
Excerpt: To determine the ability of these compounds to reduce cell loss resulting from neuronal ischemia, a standard rodent model of permanent focal ischemia, involving occlusion of the middle cerebral artery in the spontaneously hypertensive rat (MCAO model) was employed [Tamura, A., et al., Journal of Cerebral Blood Flow and Metabolism, Volume 1, 53-60, (1981)].
Selected compounds have been evaluated in the focal stroke model involving permanent middle cerebral artery occlusion (MCAO) in the spontaneously hypertensive rat. This procedure results in a reliably large neocortical infarct volume that is measured by means of vital dye exclusion in serial slices through the brain 24 hours after MCAO. In the present test, compounds were administered using an i.v. or […]. route of administration at two hours after occlusion.

SMILES | reduction of cortical infarct volume
O=C1Nc2cc(C(F)(F)F)ccc2C1c1cc(Cl)ccc1O (racemic) [Example 4, (±)-3-(5-Chloro-2-hydroxyphenyl)-1,3-dihydro-6-(trifluoromethyl)-2H-indol-2-one] | about 26%

same assay, conditions: intravenously 0.03 mg/kg, single bolus 2 hours after MCAO; infarct measured 24 hours after MCAO; vs vehicle-treated control

SMILES | reduction of cortical infarct volume
O=C1Nc2cc(C(F)(F)F)ccc2C1c1cc(Cl)ccc1O (racemic) [Example 4, (±)-3-(5-Chloro-2-hydroxyphenyl)-1,3-dihydro-6-(trifluoromethyl)-2H-indol-2-one] | about 18%
